Active and inactive are the calls of the source.
Key:
[1] = molecular target: T1, Neuropeptide Y receptor type 1 (Homo sapiens, UniProt P25929); assay type: functional;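 also: HEK293 cells with a CNG channel challenged with NPY then isoproterenol; potency as antagonist that reverses NPY suppression of cAMP signal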
T1 sequence (P25929 whole entry): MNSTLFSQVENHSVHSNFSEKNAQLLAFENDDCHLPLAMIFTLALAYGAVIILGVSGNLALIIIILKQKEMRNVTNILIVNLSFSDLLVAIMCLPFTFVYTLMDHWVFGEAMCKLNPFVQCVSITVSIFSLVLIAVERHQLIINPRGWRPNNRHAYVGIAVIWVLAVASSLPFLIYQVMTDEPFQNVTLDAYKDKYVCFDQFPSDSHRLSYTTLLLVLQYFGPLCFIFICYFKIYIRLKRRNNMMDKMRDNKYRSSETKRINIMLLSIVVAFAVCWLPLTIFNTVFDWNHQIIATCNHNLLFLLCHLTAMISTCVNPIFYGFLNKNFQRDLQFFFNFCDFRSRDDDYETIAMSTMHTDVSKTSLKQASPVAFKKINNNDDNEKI

[2] = molecular target: T2, Neuropeptide Y receptor type 2 (Homo sapiens, UniProt P49146); assay type: functional, cell-based;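 also: HEK293 cells expressing the receptor and a CNG channel; stimulus was NPY near EC95 followed by isoproterenol to raise cAMP; antagonist potency measured as restoring cAMP signal that NPY suppresses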
T2 sequence (P49146 whole entry): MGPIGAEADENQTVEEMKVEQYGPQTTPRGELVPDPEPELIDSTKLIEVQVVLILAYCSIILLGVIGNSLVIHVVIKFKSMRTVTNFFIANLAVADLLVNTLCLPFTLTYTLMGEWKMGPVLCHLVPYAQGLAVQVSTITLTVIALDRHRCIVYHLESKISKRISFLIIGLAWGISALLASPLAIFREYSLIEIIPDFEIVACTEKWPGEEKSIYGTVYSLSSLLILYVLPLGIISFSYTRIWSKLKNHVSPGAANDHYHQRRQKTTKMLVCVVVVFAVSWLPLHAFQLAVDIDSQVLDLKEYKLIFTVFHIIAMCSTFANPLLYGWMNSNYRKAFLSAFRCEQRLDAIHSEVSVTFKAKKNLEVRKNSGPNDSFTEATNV

Beta-galactosidase = Beta-galactosidase (Escherichia coli, UniProt Q8VNN2); assay: PubChem AID 485352; assay type: functional
[3] = molecular target: T3, Type-1 angiotensin II receptor (Homo sapiens, UniProt P30556); assay: AT1 receptor antagonists, dose response, selectivity assay for APJ receptor antagonist project, cell-based, uHTS hits (AID 463214); assay type: functional;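 also: antagonist potency against angiotensin II stimulated AT1 response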
T3 sequence (P30556 whole entry): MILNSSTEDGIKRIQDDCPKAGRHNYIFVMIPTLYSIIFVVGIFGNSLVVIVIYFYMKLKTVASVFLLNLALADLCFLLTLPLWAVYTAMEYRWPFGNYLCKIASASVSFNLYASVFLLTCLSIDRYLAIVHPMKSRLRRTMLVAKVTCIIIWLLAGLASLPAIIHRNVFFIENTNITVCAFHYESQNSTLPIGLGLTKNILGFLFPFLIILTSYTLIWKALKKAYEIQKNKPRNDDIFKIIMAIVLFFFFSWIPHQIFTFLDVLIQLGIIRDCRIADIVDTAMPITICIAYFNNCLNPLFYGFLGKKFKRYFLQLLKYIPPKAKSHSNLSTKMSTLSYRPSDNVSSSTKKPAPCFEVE

[4] = human group III sPLA2 inhibitors, dose response, biochemical, QFRET, IC50 (AID 743457);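 also: green fluorescence rise as the enzyme cleaves BODIPY PC-A2 in liposomes; potency for inhibition of the enzyme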
[5] = molecular target: T4, Polyadenylate-binding protein 1 (Homo sapiens, UniProt P11940); assay: PABP1 MLLE–PAM2 interaction inhibitors, dose response, miRNA deadenylation inhibitor project, biochemical, fluorescence polarization, Cy5-PAM2 peptide, secondary (AID 602260); assay type: functional; details: read-out: IC50_Mean
[6] = molecular target: T4, Polyadenylate-binding protein 1; assay: PABP1 MLLE–PAM2 binding inhibitor potency, dose response, biochemical, fluorescence polarization, FITC-PAM2 peptide (AID 602259); assay type: functional; details: read-out: IC50_Mean
Protein Tat = molecular target: T5, Protein Tat (Human immunodeficiency virus type 1 group M subtype B (isolate HXB2)(HIV-1), UniProt P04608); assay type: functional;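 also: tat binding to TAR RNA read out by fluorescence polarization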
T5 sequence (P04608 whole entry): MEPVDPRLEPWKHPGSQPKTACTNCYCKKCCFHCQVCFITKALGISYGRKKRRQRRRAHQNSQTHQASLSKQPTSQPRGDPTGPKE

[7] = NIH-3T3 fibroblast cytotoxicity, dose response, cytotoxicity control, cell-based, fluorescence, Alamar Blue, secondary assay (AID 2327); assay type: functional;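 also: NIH-3T3 mouse fibroblasts cultured with fluconazole at 8 µg/mL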
[8] = C. albicans growth with fluconazole, confirmation, fluorescence, retest (AID 2467); assay type: functional, cell-based
[9] = Concentration-dependent survival of SW480 colon cancer line, luminescence detection with CellTiter-Glo, half-maximal inhibitory concentration (AID 1117338); assay type: functional
[10] = RKO cell viability reduction, dose response, CellTiter-Glo luminescence (AID 1117322); assay type: functional
[11] = cytotoxicity toward HCT116 cells – cell-based, CellTiter-Glo luminescence, IC50, dose response (AID 1117332); assay type: functional; details: HCT-116
[12] = SNU-C1 cell viability reduction, dose response, CellTiter-Glo luminescence (AID 1117323); assay type: functional, cell-based
[13] = cytotoxicity toward Colo320 cells – cell-based, CellTiter-Glo luminescence, IC50, dose response (AID 1117334); assay type: functional; details: COLO 320
[14] = cytotoxicity toward HT-29 cells – cell-based, CellTiter-Glo luminescence, IC50, dose response (AID 1117330); assay type: functional
[15] = CellTiter-Glo luminescent dose response of DLD-1 viability loss (AID 1117352); assay type: functional
[16] = HCT116 cell viability decrease, GSK3B pretreatment – CellTiter-Glo, IC50, dose response (AID 1117339); assay type: functional; details: HCT-116
[17] = HEp-2 cell cytotoxicity, dose response, cytotoxicity control for RSV inhibitor project, HTS (AID 2410); assay type: functional; details: human respiratory syncytial virus
[18] = molecular target: T6, Sentrin-specific protease 8 (Homo sapiens, UniProt Q96LD8); assay type: functional
T6 sequence (Q96LD8 whole entry): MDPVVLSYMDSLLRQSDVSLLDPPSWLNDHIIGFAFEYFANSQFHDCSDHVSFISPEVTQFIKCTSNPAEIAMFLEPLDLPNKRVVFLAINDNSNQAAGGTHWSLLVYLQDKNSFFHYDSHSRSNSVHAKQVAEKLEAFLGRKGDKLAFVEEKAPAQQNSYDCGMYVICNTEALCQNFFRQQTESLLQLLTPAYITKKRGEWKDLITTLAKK

[19] = molecular target: T6, Sentrin-specific protease 8; assay type: functional; remark: listed apart in the source
[20] = T. cruzi growth inhibition in host cells, dose response, cell-based, plate reader, dry powder, set 2 (AID 652275); assay type: functional

T4 sequence (P11940 whole entry): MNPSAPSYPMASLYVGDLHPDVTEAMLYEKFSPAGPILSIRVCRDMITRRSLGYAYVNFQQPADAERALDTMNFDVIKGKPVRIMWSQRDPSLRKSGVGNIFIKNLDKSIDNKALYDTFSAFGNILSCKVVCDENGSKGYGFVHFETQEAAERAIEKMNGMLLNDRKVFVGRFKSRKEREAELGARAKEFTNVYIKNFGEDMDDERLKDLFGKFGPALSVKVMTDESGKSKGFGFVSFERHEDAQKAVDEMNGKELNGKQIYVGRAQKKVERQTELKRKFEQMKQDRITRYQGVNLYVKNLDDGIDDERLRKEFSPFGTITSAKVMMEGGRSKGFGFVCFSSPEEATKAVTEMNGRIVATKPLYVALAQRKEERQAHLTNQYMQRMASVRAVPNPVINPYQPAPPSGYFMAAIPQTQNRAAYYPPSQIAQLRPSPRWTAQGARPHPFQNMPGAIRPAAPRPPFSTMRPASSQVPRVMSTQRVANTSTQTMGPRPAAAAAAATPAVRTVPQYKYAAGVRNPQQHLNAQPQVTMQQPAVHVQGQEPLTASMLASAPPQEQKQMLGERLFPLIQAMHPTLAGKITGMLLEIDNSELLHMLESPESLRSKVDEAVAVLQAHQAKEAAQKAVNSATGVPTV
Chain of Beta-galactosidase (Q8VNN2 whole entry): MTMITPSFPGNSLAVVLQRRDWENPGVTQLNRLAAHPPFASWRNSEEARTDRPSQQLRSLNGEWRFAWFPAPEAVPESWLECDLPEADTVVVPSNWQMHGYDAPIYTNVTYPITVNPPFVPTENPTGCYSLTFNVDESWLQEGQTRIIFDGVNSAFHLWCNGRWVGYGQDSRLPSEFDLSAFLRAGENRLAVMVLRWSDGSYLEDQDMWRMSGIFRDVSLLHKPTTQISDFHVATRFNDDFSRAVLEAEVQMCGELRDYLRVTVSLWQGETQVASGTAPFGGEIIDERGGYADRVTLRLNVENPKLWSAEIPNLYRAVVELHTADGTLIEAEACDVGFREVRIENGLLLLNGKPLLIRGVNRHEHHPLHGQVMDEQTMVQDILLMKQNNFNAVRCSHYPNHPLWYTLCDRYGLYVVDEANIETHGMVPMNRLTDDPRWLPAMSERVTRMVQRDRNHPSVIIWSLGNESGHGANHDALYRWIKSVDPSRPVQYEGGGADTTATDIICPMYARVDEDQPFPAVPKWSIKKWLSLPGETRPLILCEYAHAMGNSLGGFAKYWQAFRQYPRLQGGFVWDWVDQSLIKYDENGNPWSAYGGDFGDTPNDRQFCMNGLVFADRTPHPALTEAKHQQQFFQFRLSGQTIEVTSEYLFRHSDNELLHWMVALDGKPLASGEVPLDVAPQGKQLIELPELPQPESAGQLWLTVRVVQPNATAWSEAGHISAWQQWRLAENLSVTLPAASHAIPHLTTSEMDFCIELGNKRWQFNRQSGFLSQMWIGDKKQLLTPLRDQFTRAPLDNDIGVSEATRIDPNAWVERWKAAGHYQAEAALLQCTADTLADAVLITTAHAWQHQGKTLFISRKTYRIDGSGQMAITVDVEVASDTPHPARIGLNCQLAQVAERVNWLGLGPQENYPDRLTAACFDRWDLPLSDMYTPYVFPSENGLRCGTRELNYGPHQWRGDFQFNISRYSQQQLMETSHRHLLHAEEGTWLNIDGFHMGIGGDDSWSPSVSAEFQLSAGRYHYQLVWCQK

CCC(NCCC(c1ccccc1)c1ccccc1)=C1C(=O)N(C)C(=O)N(C)C1=O
IC50 [1]: 5.26 µM (active)
IC50 [2]: 5.26 µM (active)

CCN=C(S)NNc1nnc(-c2ccccc2)c(-c2ccccc2)n1
EC50 (Beta-galactosidase): > 40 µM (inactive)
IC50 [3]: > 40 µM (not active)
IC50 [4]: > 122 µM (inactive)

C=CCn1c(SCC(=O)c2cc(C)n(C(C)COC)c2C)nc2sc(C)c(C)c2c1=O (stereo unspecified)
IC50 [5]: > 66 µM (inactive)
IC50 [6]: > 66 µM (inactive)
IC50 (Protein Tat): > 100 µM (active)

Cc1cc(C(=O)NNC(S)=NC(C)c2ccccc2)c2ccccc2n1 (stereo unspecified)
EC50 [7]: > 150 µM (inactive)
EC50 [8]: > 38 µM (not active)
IC50 [4]: > 122 µM (inactive)

C=CCN1CC[C@]23CCCC[C@H]2[C@H]1Cc1ccc(O)cc13 [LEVALLORPHAN]
IC50 [9]: > 20 µM (inactive)
IC50 [10]: > 20 µM (inactive)
IC50 [11]: > 20 µM (inactive)
IC50 [12]: > 20 µM (inactive)
IC50 [13]: > 20 µM (inactive)
IC50 [14]: > 20 µM (inactive)
IC50 [15]: > 20 µM (inactive)
IC50 [16]: > 20 µM (inactive)

C=CCN1C(=O)NC(=O)/C(=C(/CC)NCCN2CCOCC2)C1=O
IC50 (Protein Tat): > 100 µM (active)

COc1ccc(-c2cc(C(=O)N3CCCCCC3)c3ccccc3n2)c(OC)c1
CC50 [17]: 40.8 µM (active)
IC50 (cells): 28 µM (active)

O=C(O)c1cccc(N2C(=O)c3ccc4c5c(ccc(c35)C2=O)C(=O)N(c2cccc(C(=O)O)c2)C4=O)c1
IC50 [18]: 13.7 µM (active)
IC50 [19]: 16.5 µM (active)

Cc1ccc(S(=O)(=O)C(c2ccccc2)c2c(C)noc2C)cc1 (stereo unspecified)
IC50 [1]: > 35 µM (not active)
IC50 [2]: 3.92 µM (active)

CC(C)(C)[S@@+]([O-])N1Cc2cc(C(=O)NCc3ccc4c(c3)OCO4)nc(-c3cccc(-c4ccccc4)c3)c2[C@H]1CCO
AC50 [20]: 309 nM (active)

Cc1onc(-c2ccccc2Cl)c1C(=O)Nc1sc2c(c1C#N)CCC2
EC50 [7]: > 160 µM (inactive)
IC50 [1]: 7.12 µM (active)
EC50 [8]: 1.59 µM (active)
IC50 [2]: 5.86 µM (active)
